Assay type in all cases: physicochemical
Data set [1] is described as follows: Photodegradation of solid SkQ1 bromide under natural day/night illumination. How it is done: As a result, SkQ1 was stored in light protective packaging or a dark glass container. The crystalline form of SkQ1 bromide as prepared in Example 2C and was tested by placing 50 mg portions at room temperature in transparent plastic vials, under conditions of natural change of day and night illumination with indirect sunlight.

Data set [2] can be described thus: Resistance to gamma radiation (sterilization). The conditions noted are these: sterilization by gamma radiation.
Data set [3] in a line: Stability of crystalline SkQ1 chloride and iodide compared with SkQ1 bromide. The conditions noted are these: crystals obtained by the same crystallization methods. From the text: Purity and stability parameters of obtained SkQ1 Cl and SkQ I were similar to such parameters of SkQ1 bromide.
Data set [4] can be described thus: Solubility in water and in protic solvents (observations during crystallization work). How it is done: Attempts to reduce the concentration of ethanol and to use isopropanol were undertaken. SkQ1 bromide in an amount of 177 mg was added to an ethanol (1V)-ethyl acetate (5V) mixture. In another experiment, SkQ1 in an amount of 178 mg was added to an isopropanol (1V)-ethyl acetate (5V) mixture. […] To each of the above solutions, 5V ml of MTBE was added, initially oiling out the supersaturated solution. After leaving the solution overnight at room temperature, crystals were formed. This process with varying amounts of ethanol (from 0.274-0.574 V) led to similar results of solid formation after MTBE addition. Similarly, ethyl acetate was increased to 10V, with similar results of fine solid formation only after adding MTBE, but with lower yields. When ethanol solvent amounts were increased ton 1.174 V, crystallization occurred after adding MTBE, but yields were low.

A short description of data set [5]: Hygroscopicity of the isolated solid. The conditions noted are these: non-crystalline solid as isolated. The source says: Hygroscopic solids are associated with numerous difficulties when attempting to use them in pharmaceutical compositions, including low stability and difficulty in handling. Crystallization of halide salts of SkQ1 by using a number of solvents, individually or in combination, was attempted.

4 molecules from US20260217746A1, “CRYSTALLINE FORMS OF ANTIOXIDANT COMPOUND” (Mitotech Ltd, priority 2023, published 2026) can be followed below.

Structures are written as SMILES.

Take `CC1=C(C)C(=O)C(CCCCCCCCCC[P+](c2ccccc2)(c2ccccc2)c2ccccc2)=CC1=O` [Amorphous SkQ1 bromide, 2,3-dimethyl-1,4-benzoquinone-5-decyl-triphenylphosphonium bromide, reference compound]: the photosensitivity result in data set [1] (amorphous form, stored in light protective packaging or dark glass container) is on record as “photosensitive”. Further, in data set [2] (listed as oil form), the “stability to gamma radiation” value is recorded as “degraded”.

`CC1=C(C)C(=O)C(CCCCCCCCCC[P+](c2ccccc2)(c2ccccc2)c2ccccc2)=CC1=O` [SkQ1 Cl]: the “stability parameters relative to SkQ1 bromide” value in data set [3] is “similar”.

For `CC1=C(C)C(=O)C(CCCCCCCCCC[P+](c2ccccc2)(c2ccccc2)c2ccccc2)=CC1=O` [SkQ1 bromide, 2,3-dimethyl-1,4-benzoquinone-5-decyl-triphenylphosphonium bromide], the “solubility in protic solvents” value in data set [4] (ethanol (1V)- or isopropanol (1V)-ethyl acetate (5V) mixture, room temperature, 0.5 hours) is given as “highly soluble”. The solubility in water result in data set [4] (water) is “sparingly soluble”. The figures for the hygroscopicity entry in data set [5] and in data set [5] (listed as SkQ1 bromide salt) were “hygroscopic” and “highly hygroscopic”, respectively.

With `CC1=C(C)C(=O)C(CCCCCCCCCC[P+](c2ccccc2)(c2ccccc2)c2ccccc2)=CC1=O` [crystalline form of SkQ1 bromide, 2,3-dimethyl-1,4-benzoquinone-5-decyl-triphenylphosphonium bromide], the sample photodegradation entry in data set [1] (50 mg portions, room temperature, transparent plastic vials, natural day and night illumination with indirect sunlight, analyzed at 6 hours, 4 days, 1 month and 2 months) was “no degradation was found in any of the samples”. Moreover, the “resistance to degradation, in particular photodegradation, compared to the previously known amorphous form” value in data set [1] (crystalline versus amorphous form) is “more resistant to degradation”. In addition, the “stability to gamma radiation” value in data set [2] (listed as crystalline SkQ1) is recorded as “resistant to gamma radiation”.
